Legend:
[1] = system: human T-type calcium channel; assay: Whole-cell patch clamp measurement of T-type calcium channel inhibition (barium T-current); assay type: cell-based; conditions: for Ratio of IC50 value to IC50 value of 6-prenylnaringenin (%): IC50 as percentage of the IC50 of 6-prenylnaringenin, measured as in Example 1; for T-type calcium channel inhibitory action (in words): whole-cell patch clamp, in vitro; for Inhibition rate (%): EK293 cell forcibly expressing human T-type calcium channel, 6 cases
Protocol: Using a human kidney cell-derived cell line, an EK293 cell, in which a human T-type calcium channel was forcibly expressed, the inhibitory effect of 6-prenylnaringenin on the T-type calcium channel was measured by the whole cell patch clamp method.
In the whole-cell patch clamp method, the following solutions are used as an external solution and an internal solution, the holding potential is set to −80 mV, and the barium current was measured as an inward current flow upon a potential jump from −80 mV to −20 mV. Here, in order to eliminate the influence of the high threshold activated-calcium channel, a value obtained by subtracting the current at 150 ms after the start of stimulation from the peak current was used as a T-channel current (T-current) for data analysis.
External Solution Composition
Aqueous solution containing the following: • 97 mM N-methyl-D-glucamine (NMDG); • 10 mM BaCl2; • 10 mM 4-(2-hydroxyethyl)-1-piperazine ethanesulfonic acid (HEPES); • 40 mM tetraethylammonium chloride (TEA-Cl); and • 5 mM glucose • (pH 7.4). Internal Solution Composition
Aqueous solution containing the following: • 4 mM MgCl2; • 140 mM CsCl; • 10 mM HEPES; and • 5 mM glycol ether diamine tetraacetic acid (EGTA) • (pH 7.2).
The inhibitory effect of the compound of the present invention on the T-type calcium channel was measured in the same manner as in Example 1, except that the compound of the present invention was used instead of 6-prenylnaringenin.

[2] = system: PSNL-induced hyperalgesia; assay: Partial sciatic nerve ligation (PSNL)-induced hyperalgesia, pain threshold by von Frey method; assay type: in vivo, ddY male mice; conditions: 10 to 30 mg/kg intraperitoneally, mice 7 days after PSNL, versus vehicle group after PSNL
Protocol: PSNL-induced hyperalgesia was performed using ddY male mice under inhaled isoflurane anesthesia by incising the skin on the femur of the mouse and exposing ⅓ to ½ of the exposed sciatic nerve was completely ligated with a 8-0 suture. […] The pain threshold was measured by the von Frey method.
Compounds-40, 41, 45 and 47 were suspended in 5% aqueous carboxymethylcellulose and administered intraperitoneally using mice after 7 days of PSNL treatment, which is considered to be a chronic phase in which hyperalgesia is stable, and Pain thresholds were measured every minute. As controls, a group to which a solvent was administered after sham operation and a group to which a solvent and 6-prenylnaringenin were administered after induction of hyperalgesia by PNSL were provided.

CC(C)=CCc1c(O)cc2c(c1O)C(=O)CC(c1c(O)cccc1O)O2 (stereo not shown) [Compound-42, 2-(2,6-dihydroxy-phenyl)-5,7-dihydroxy-6-(3-methyl-but-2-enyl)-chroman-4-one]
Ratio of IC50 value to IC50 value of 6-prenylnaringenin (%) [1]: 72.3%

CCC(=CCc1c(O)cc2c(c1O)C(=O)CC(c1ccccc1O)O2)CC (stereo not shown) [Compound-45, 6-(3-ethyl-pent-2-enyl)-5,7-dihydroxy-2-(2-hydroxy-phenyl)-chroman-4-one]
Ratio of IC50 value to IC50 value of 6-prenylnaringenin (%) [1]: 2.3%
T-type calcium channel inhibitory action (in words) [1]: excellent T-type calcium channel inhibitory activity in vitro
Effect on PSNL-induced hyperalgesia (pain threshold) [2]: significantly suppressed hyperalgesia

CCCC(=CCc1c(O)cc2c(c1O)C(=O)CC(c1ccc(O)cc1)O2)CCC (stereo not shown) [Compound-48, 5,7-dihydroxy-2-(4-hydroxy-phenyl)-6-(3-propyl-hex-2-enyl)-chroman-4-one]
Ratio of IC50 value to IC50 value of 6-prenylnaringenin (%) [1]: 54.8%

O=C1CC(c2ccc(O)cc2)Oc2cc(O)c(CC=C3CCCC3)c(O)c21 (stereo not shown) [Compound-41, 6-(2-cyclopentylidene-ethyl)-5,7-dihydroxy-2-(4-hydroxy-phenyl)-chroman-4-one]
Ratio of IC50 value to IC50 value of 6-prenylnaringenin (%) [1]: 9.0%
T-type calcium channel inhibitory action (in words) [1]: excellent T-type calcium channel inhibitory activity in vitro
Effect on PSNL-induced hyperalgesia (pain threshold) [2]: significantly suppressed hyperalgesia

CC(C)CCc1c(O)cc2c(c1O)C(=O)CC(c1ccc(O)cc1)O2 (stereo not shown) [Compound-39, 5,7-dihydroxy-2-(4-hydroxy-phenyl)-6-(3-methyl-butyl)-chroman-4-one]
Ratio of IC50 value to IC50 value of 6-prenylnaringenin (%) [1]: 10.6%

CC(C)=CCc1c(O)cc2c(c1O)C(=O)CC(c1ccccc1O)O2 (stereo not shown) [Compound-33, 5,7-dihydroxy-2-(2-hydroxy-phenyl)-6-(3-methyl-but-2-enyl)-chroman-4-one]
Ratio of IC50 value to IC50 value of 6-prenylnaringenin (%) [1]: 12.2%

CC(C)=CCc1ccc2c(c1O)C(=O)CC(c1ccccc1O)O2 (stereo not shown) [Compound-43, 5-hydroxy-2-(2-hydroxy-phenyl)-6-(3-methyl-but-2-enyl)-chroman-4-one]
Ratio of IC50 value to IC50 value of 6-prenylnaringenin (%) [1]: 26.6%

CC(C)=CCc1c(O)cc2c(c1O)C(=O)CC(c1cccc(O)c1)O2 (stereo not shown) [Compound-34, 5,7-dihydroxy-2-(3-hydroxy-phenyl)-6-(3-methyl-but-2-enyl)-chroman-4-one]
Ratio of IC50 value to IC50 value of 6-prenylnaringenin (%) [1]: 12.5%

CC(C)=CCc1c(O)cc2c(c1O)C(=O)CC(c1ccc(O)c(O)c1)O2 (stereo not shown) [Compound-36, 2-(3,4-dihydroxy-phenyl)-5,7-dihydroxy-6-(3-methyl-but-2-enyl)-chroman-4-one]
Ratio of IC50 value to IC50 value of 6-prenylnaringenin (%) [1]: 87.5%

CCC(CC)CCc1c(O)cc2c(c1O)C(=O)CC(c1ccc(O)cc1)O2 (stereo not shown) [Compound-46, 6-(3-ethyl-pentyl)-5,7-dihydroxy-2-(4-hydroxy-phenyl)-chroman-4-one]
Ratio of IC50 value to IC50 value of 6-prenylnaringenin (%) [1]: 15.0%

CC(C)=CCc1c(O)cc2c(c1O)C(=O)C[C@@H](c1ccc(O)cc1)O2 [6-prenylnaringenin, 6-Prenylnaringenin, reference compound]
IC50 ([1]; calculated by GraphPad Prism from the results of Example 1): 801 nM
Inhibition rate (%) ([1]; compound concentration 300 nM): 0%
Inhibition rate (%) ([1]; compound concentration 1000 nM): 82.7%
Inhibition rate (%) ([1]; compound concentration 3000 nM): 99.0%
T-type calcium channel inhibitory action (in words) [1]: excellent T-type calcium channel inhibitory action

O=C1CC(c2ccc(O)cc2)Oc2cc(O)c(CCC3CCCC3)c(O)c21 (stereo not shown) [Compound-47, 6-(2-cyclopentyl-ethyl)-5,7-dihydroxy-2-(4-hydroxy-phenyl)-chroman-4-one]
Ratio of IC50 value to IC50 value of 6-prenylnaringenin (%) [1]: 8.1%
T-type calcium channel inhibitory action (in words) [1]: excellent T-type calcium channel inhibitory activity in vitro
Effect on PSNL-induced hyperalgesia (pain threshold) [2]: significantly suppressed hyperalgesia

CCC(=CCc1c(O)cc2c(c1O)C(=O)CC(c1ccc(O)cc1)O2)CC (stereo not shown) [Compound-40, 6-(3-ethyl-pent-2-enyl)-5,7-dihydroxy-2-(4-hydroxy-phenyl)-chroman-4-one]
Ratio of IC50 value to IC50 value of 6-prenylnaringenin (%) [1]: 7.7%
T-type calcium channel inhibitory action (in words) [1]: excellent T-type calcium channel inhibitory activity in vitro
Effect on PSNL-induced hyperalgesia (pain threshold) [2]: significantly suppressed hyperalgesia

From patent publication US11479537B2, “T-type calcium channel inhibitor” (KINKI UNIVERSITY, priority 2017, dated 2022)
